From US10993923B2, “Method for ameliorating fibrosis using 1-[4-chloro-3-(trifluoromethyl)phenyl]-3-[3-(4-cyanophenoxy)phenyl]urea” (priority 2016, dated 2021) come the findings set out here.

Test [1] relates to human lung epithelial cells (A549 cell line). Kind of test: TGF-β1-induced epithelial mesenchymal transition (EMT) in A549 cells. The test is classed as cell-based. The method, then:
Murine NIH3T3 fibroblasts and human lung epithelial cells (A549 cells) were purchased from the Bioresource Collection and Research Center (Hsinchu, Taiwan). Cells were cultured in Dulbecco's modified eagle medium (DMEM) containing 10% fetal bovine serum (FBS), 100 μg/mL penicillin, 100 μg/mL streptomycin. Cells were cultured at 37° C. in a humidified atmosphere of 5% CO2 and passaged every 4 to 5 days at 1:4 ratios.
Whole-cell extracts were obtained via RIPA buffer (Millipore, USA) and protein concentrations were quantified via a BCA protein assay kit (Thermo Fisher Scientific, USA). 20 or 25 μg of protein was added to various percentages of SDS-sodium dodecyl sulfate-acrylamide gel and blotted onto a polyvinylidene fluoride (PVDF) membrane. The membrane was then reacted with a primary antibody; after extensive washing, the membrane was reacted with a […] containing a second antibody. Proteins were detected by Immobilon Western Chemiluminescent HRP substrate (Millipore, USA) or ECL detection system (UVP Corporation, USA).
Antibodies for immunoblotting techniques such as anti-E-cadherin, anti-Fibronectin, anti-N-cadherin were purchased from Abcam (UK). Other antibodies such as anti-SHP-1, anti-phosphorylated STAT3(Tyr705), anti-STAT3α-smooth muscle actin (α-SMA) and anti-caspase-9 were purchased from Cell Signaling Corporation ([…], United States).
Smart-pool siRNA, including control (sc-37007) siRNA, siRNA anti-SHP-1, and STAT3, were purchased from Santa Cruz Biotechnology (California, USA).

Test [2] has as its system CCl4-induced hepatic fibrosis in mice. Kind of test: CCl4-induced hepatic fibrosis mice treatment model. Format: in vivo, male C57BL/6J mice. From the text: In male C57BL/6J mice, liver fibrosis was induced by carbon tetrachloride (CCl4). The mice were given peritoneal injection of carbon tetrachloride for 4 or 8 weeks every two weeks.
(§1) The mice liver samples were stored in 10% formaldehyde, dehydrated with gradient alcohol, embedded in paraffin blocks, sectioned to a thickness of 3 μm, placed on glass slides, and stained with Picrosirius Red Stain kit (ScyTek, USA), following the manufacturer's instructions. The severity of liver fibrosis was graded according to the Ishak fibrosis score. Quantitative collagen-positive area (qCPA) was determined by densitometry via ImageJ software. Hepatic hydroxyproline concentrations were measured by the hydroxyproline assay kit (Biovision, USA), following the manufacturer's instructions Immunohistochemistry was performed by the Leica BOND-MAX automatic chromatograph (Leica Biosystems, Germany), following the manufacturer's instructions.
Continuous variables are presented as mean (standard error), and categorical data are presented as number (percentage), as appropriate. Differences between subgroups were evaluated using the Student t test. Spearman's correlation was used for the association between SHP-1 and serum alanine aminotransferase (ALT). The mouse survival rate was estimated using the Kaplan-Meier method. The log-rank test was used to determine the statistical differences in survival of the different experimental groups. Statistical analysis was performed using STATA (version 13, Stata Corp, College Station, Tex., USA). All tests were two-sided, and P<0.05 was considered significant.

The subject of test [3] is BDL-induced cholestasis fibrosis in mice. Kind of test: Bile duct ligation (BDL) fibrosis mice treatment model. To be noted: 10 mg/kg from day 8 until sacrifice on day 14 following BDL; FIG. 13C, 13D. Format: in vivo, Balb/C mice.
Excerpt: In the bile duct ligation (BDL) mouse model, the common bile duct of Balb/C mice was double-ligated and excised. Mice were fed daily with vehicle or 1-[4-chloro-3-(trifluoromethyl)phenyl]-3-[3-(4-cyanophenoxy)phenyl]urea on day 1 or day 8 until they were sacrificed on day 14.
as §1

The test system of test [4] is HSC-T6 cells. Kind of test: Cell viability (MTS), HSC-T6 cells. To be noted: 24 hours; effect more significant than sorafenib; FIG. 14A. The test is classed as cell-based, rat. The method, then: (§2) Rat immortal hepatic stellate cell line HSC-T6 and LX2 human hepatic stellate cell line were provided by Professor Scott Friedman of Mount Sinai Hospital in New York, USA. The primary mouse HSCs were obtained via the way: after intubating the hepatic portal vein of the mouse, the cells were perfused with Leffert's and ethylene glycol bis-aminoethyl ether tetraacetic acid (EGTA) buffer in situ, and then collagenase was injected to digest the liver tissue, and then the primary mouse HSCs were isolated by Histodnz gradient. […]
(§3) HSC-T6 cells, LX2 cells or primary mouse HSCs cells were seeded in 96-well plates (5,000 cells/well) for 24 hours, and the cells were treated with various concentrations of 1-[4-chloro-3-(trifluoromethyl)phenyl]-3-[3-(4-cyanophenoxy)phenyl]urea or Sorafenib for 24 or 48 hours. The effect of each reagent on the cell viability and the cell were evaluated by CellTiter 96 AQueous one solution of 3-(4,5-dimethylthiazol-2-yl)-5-(3-carboxymethoxyphenyl)-2-(4-sulfophenyl)-2H-tetra zolium, an inner, MTS (Promega, USA). […] The proportion of apoptotic cells was mixed the early (Annexin V+/PI−) and the late (Annexin V+/PI+) apoptotic cells measured by BD FACS Verse flow cytometry (BD, USA).

Test [5] relates to LX2 cells. The test can be described thus: Cell viability (MTS), LX2 cells. Format: cell-based, human. The conditions noted are these: 24 hours; effect more significant than sorafenib; FIG. 14A. As for the experimental part: as §2, §3
In test [6] the test system is primary mouse HSCs. The test can be described thus: Cell viability (MTS), primary mouse HSCs. The test is classed as cell-based. The conditions noted are these: 24 or 48 hours; FIG. 14A. The method, then: as §2, §3
In test [7] the test system is PDGFR and STAT3 pathways in HSC-T6 cells. The test can be described thus: Western blot of signalling proteins in HSC-T6 cells. Format: cell-based, rat. The method, then:
as §2, with “gradient. HSC-T6 cells were cultured in Waymouth medium; LX2 cells and primary mouse HSCs were cultured in Dulbecco's Modified Eagle Medium (DMEM) containing 10% fetal bovine serum (FBS), 100 μg/mL penicillin, 100 μg/mL streptomycin, and 2 mM L-glutamine HSC-T6 cells, LX2 cells and primary mouse HSCs were cultured in a humidified incubator containing 5% carbon dioxide at 37° C. After adding the FBS, the resting HSC is started.” for “gradient.”
Whole-cell extracts were obtained via RIPA buffer (Millipore, USA) and protein concentrations were quantified via a BCA protein assay kit (Thermo Fisher Scientific, USA). […] Proteins were detected by Immobilon Western Chemiluminescent HRP substrate (Millipore, USA) or ECL detection system (UVP Corporation, USA). […]

`N#Cc1ccc(Oc2cccc(NC(=O)Nc3ccc(Cl)c(C(F)(F)F)c3)c2)cc1` [1-[4-chloro-3-(trifluoromethyl)phenyl]-3-[3-(4-cyanophenoxy)phenyl]urea]: the “effects of the compound (p-STAT3, EMT marker, migration and invasion) after SHP-1 knock out with siRNA” value in test [1] (A549, FIG. 9B) is given as “offset the effects”. Also, in test [1] (A549, FIG. 9C), the “effects of the compound (EMT marker, migration and invasion) after STAT3 knock out” value is “offset the effects”. In addition, in test [1] (A549 exposed to TGF-β1, FIG. 8B), the “TGF-β1-induced EMT (EMT marker profile)” value is “reversed TGF-β1-induced EMT in a dose-dependent manner”. In addition, in test [1] (A549 exposed to TGF-β1, FIGS. 8C and 8D), the “migration and invasion of cells” value is on record as “reduced”. In test [2] (10 mg/kg, log rank P=0.0671, FIG. 12E), the “survival compared with the sorafenib treatment” value was “tendency to yield higher survival”. Further, the “survival rate compared with the control group” value in test [2] (10 mg/kg, log-rank P=0.0291, FIG. 12E) is “significantly improved the survival rate”. Besides, the “anti-fibrotic activity in qCPA, Ishak fibrosis score and hydroxyproline concentration” value in test [2] (5, 10, or 20 mg/kg, FIG. 12B-12D) is on record as “increasing anti-fibrotic activity”. Further, the “hepatic fibrosis (picrosirius red staining)” value in test [2] (compound 5, 10, or 20 mg/kg or sorafenib 10 mg/kg, with CCl4 for 6 weeks after 2 weeks CCl4 induction, FIG. 12A) was “significantly improved hepatic fibrosis”. Also, in test [3], the “quantitative collagen-positive area (qCPA)” value is on record as “significantly reduced”. Besides, the “viability of HSC-T6 cells” value in test [4] is “dose-dependent effects to reduce the viability”. In test [5], the “viability of LX2 cells” value is reported as “dose-dependent effects to reduce the viability”. For the same compound, the “viability of primary mouse HSCs” value in test [6] was “dose- and time-dependent effects to reduce the viability”. The “p-PDGFR and p-Akt in the PDGFR pathway” value in test [7] (10 μM for 4 hours, then PDGF-BB 100 ng/mL 10 minutes, FIG. 14E) is “downregulated”. The “downregulation of p-STAT3 and cyclin D1, compared with sorafenib” value in test [7] (FIG. 15A) is “more significant dose-escalation effects on the downregulation”.
